This note sets out measurements from ChEMBL document CHEMBL3044768, “Chemistry, toxicity and antifeedant activity of the resin of Flourensia thurifera” (1997).

What is called LC50 is the concentration lethal to half of the exposed cells or organisms.

One assay has as its system Artemia salina. As to the kind of experiment: Toxicity against Artemia salina (brine shrimp) after 24 hr. In kind it is functional.
The test system of the next assay is Spodoptera littoralis. As to the kind of experiment: Antifeedant activity against fifth instar larvae of Spodoptera littoralis fed on compound-treated lettuce leaf at 10 ug/cm'2 by leaf-disk method. In kind it is functional. On the set-up: unit not given here.

Molecules are shown by their SMILES. In brackets after ≈: the same amount, converted by molar mass.

Consider `COC(=O)/C=C/c1ccc(OC(C)=O)c(C/C=C(\C)COC(C)=O)c1`, for which the LC50 in the assay with Artemia salina is 39.8 µg/mL (≈ 115 µM).

In the case of `COc1cc2ccc(=O)oc2c(O)c1OCC=C(C)C` [CAPENSIN], the FR50 in the assay with Spodoptera littoralis worked out at 1.04. Also, the LC50 with Artemia salina turned out to be 52.5 µg/mL (≈ 190 µM).

For `CC(=O)c1cc2c(cc1O)OC(C)(C)C=C2` [DEMETHYLENCECALIN], the FR50 in the assay with Spodoptera littoralis amounted to 0.4. This molecule also displayed an LC50 with Artemia salina of 17.6 µg/mL (≈ 80.6 µM).

In the assay with Spodoptera littoralis, `CC(C)=CCc1cc(/C=C/C(=O)O)ccc1O` [DRUPANIN] yielded an FR50 of 78. In the assay on Artemia salina, this molecule yielded a 50% lethal concentration (LC50) of 104 µg/mL (≈ 449 µM).

As to `COc1cc2c(cc1C(C)=O)C=CC(C)(C)O2` [ENCECALIN], the FR50 in the assay on Spodoptera littoralis was 0.08. The molecule also gave a 50% lethal concentration (LC50) in the assay on Artemia salina of 0.9 µg/mL (≈ 3.87 µM).

Take `C=C(C)c1cc2cc(C(C)=O)c(O)cc2o1` [EUPARIN]: in the assay on Spodoptera littoralis, the FR50 came to 0.42. Moreover, in the assay on Artemia salina, the median lethal concentration (LC50) worked out at 58.9 µg/mL (≈ 272 µM).

For the molecule `COc1cc2ccc(=O)oc2cc1OCC=C(C)C` [PRENYLETIN 6-METHYL ETHER], the FR50 with Spodoptera littoralis stood at 0.43. The LC50 in the assay on Artemia salina turned out to be 17.6 µg/mL (≈ 67.6 µM).

With `CC(C)=CCOc1cc2oc(=O)ccc2cc1O` [PRENYLETIN], the FR50 in the assay with Spodoptera littoralis worked out at 1.06. In addition, the 50% lethal concentration (LC50) in the assay on Artemia salina came to 3.8 µg/mL (≈ 15.4 µM).

In the assay with Spodoptera littoralis, `COc1cc(O)c2c(=O)c(O)c(-c3ccc(O)c(O)c3)oc2c1` [RHAMNETIN] registered an FR50 of 71.
